Patent US4713453A, “Oxabicycloheptane derivatives” (Suntori Limited, priority 1986, dated 1987)

What was measured:
[1] = test system: Male ddY mice; test: Anti-cerebroischemic effect (brain protection after ischemia by decapitation): gasping time; format: in vivo, mouse (male ddY); details: intraperitoneal, 30 min before decapitation
Method: 1. Anti-cerebroischemic effect (i.e., brain protection after ischemia by decapitation)
Male ddY mice weighing 22-30 g were used in groups each consisting of 6 animals. Test compounds were administered intraperitoneally to the mice which were decapitated 30 minutes after the administration. The gasping time, or the duration of time between the onset of panting after decapitation and its cessation, was measured, and this was compared with the gasping time for a control group which were given only a liquid vehicle.

[2] = test system: peroxylipid formation; test: Anti-lipidperoxidation effect (TBA assay of malondialdehyde in rat brain homogenate); format: biochemical, rat (male Wistar); details: for Inhibition of peroxylipid formation: 10 μl (10^-4 M) test compound in 990 μl sample, 37° C., 30 minutes, pH 7.4; for anti-lipidperoxidation effects: rat brain homogenate
Method: 3. Anti-lipidperoxidation effect
Male Wistar rats weighing 200-250 g were used. The brain of each rat was extracted after decapitation, homogenized with 50 mM of a phosphate buffer solution (PBS, pH 7.4) and centrifuged at 1,000 g for 15 minutes. The supernatant was stored frozen at -30° C. Before use, it was thawed under flowing water and diluted with PBS three-fold to prepare a live sample.
Two samples were prepared by adding 10 μl (10^-4 M) of a test compound in solution to 990 μl of the live sample. One sample was incubated at 37° C. for 30 minutes and reaction was quenched by addition of 0.2 ml of 35% aqueous perchloric acid. The other sample was immediately mixed with 35% perchloric acid without incubation. Each of the mixtures was centrifuged at 3,000 rpm for 15 minutes and 0.5 ml of the supernatant was subjected to TBA assay (Yagi et al., Anal. Biochem., 95, 351 (1979)) for determining the malondialdehyde (MDA) content (×10^-4 M) by subtracting the peroxylipid level for the unincubated mixture from that for the incubated mixture. The percent inhibition of peroxylipid formation was calculated by the following formula: [formula] where A is the MDA content of a treated sample and B is the value for a control sample that was not treated with any test compound.

[3] = test system: Male ddY mice; test: Anti-hypoxia effect (brain protection in low-oxygen state after evacuation): survival time; format: in vivo, mouse (male ddY); details: intraperitoneal, 180 mmHg
Method: 2. Anti-hypoxia effect (i.e., […] protection in low-oxygen state after evacuation)
Male ddY m8mice weighing 22-30 g were used in groups each consisting of 7-10 animals. The mice were placed in a desiccator (capacity: ca. 1,000 ml) which was evacuated with a vacuum pump to an internal pressure of 180 mmHg after intraperitoneal administration of test compounds. The survival time, or the duration of time between the start of evacuation and the cessation of breathing, was measured, and this was compared with the value for a vehicle group. Any survival time longer than a period of 15 minutes after application of a hypoxia load was counted as 15 minutes.

[4] = test system: scopolamine amnesia mouse; test: Anti-amnesia effect (scopolamine-induced retrograde amnesia), step-through passive avoidance; format: in vivo, mouse (male ddY); details: ip, 24 h, significant prolongation of step-through latency, intraperitoneal, scopolamine 0.5 mg/kg s.c., read-out: Minimum effective amount
Method: 6a. Anti-amnesia effect (i.e., capability of preventing scopolamine-inducedretrograde amnesia)
Five-week old male ddY weighing 25-30 g were used in groups each consisting of 10 animals. Memory retention deficit induced by scopolamine was evaluated by two-compartment step-through passive avoidance task. […] The floor of the dark compartment was provided with a current-conducting grid.
The experimental method was as follows. A scopolamine amnesia mouse that had been given subcutaneous injection of 0.5 mg/kg of an aqueous solution of scopolamine borate 20 minutes before was placed in the light compartment and when its forefeet touched the grid floor of the dark compartment, a current of 0.6 mA was applied to give a foot shock to the mouse (acquired conation). Immediately thereafter, a selected test compound or a control (physiological saline solution) was administered intraperitoneally. Twenty-four hours later, the mouse was replaced in the light compartment and the step-through latency, or the time required for the mouse to move to the dark compartment, was measured for a period of up to 300 seconds (test conation). The minimum effective amount of the test compound that provided a significant prolongation of the step-through latency over the control was determined.

SMILES	prolongation of gasping time ([1]; 25 mg/kg)	Inhibition of peroxylipid formation [2]	prolongation of survival time ([3]; 12.5 mg/kg)	also measured
CN(C)CCON=C1c2ccccc2OC2(c3ccccc3)CC12 (stereo not shown) [Example 1, 3,4-Benzo-5-(2-dimethylaminoethyl)oxyimino-1-phenyl-2-oxabicyclo[4.1.0]heptane]	significantly prolonging the gasping time	56.9%		
CC(CON=C1c2ccccc2OC2(c3ccccc3)CC12)CN(C)C (stereo not shown) [Example 4, 3,4-Benzo-5-(3-dimethylamino-2-methylpropyl)-oxyimino-1-phenyl-2-oxabicyclo[4.1.0]heptane]		56.0%	significantly prolonging the survival time	
c1ccc(C23CC2C(=NOCCC24CCCN2CCC4)c2ccccc2O3)cc1 (stereo not shown) [Example 5, 3,4-Benzo-5-(2-pyrrolizidin-8-ylethyl)oxyimino-1-phenyl-2-oxabicyclo[4.1.0]heptane]		96.5%	significantly prolonging the survival time	anti-lipidperoxidation effects [2]: strong anti-lipidperoxidation effects
COc1ccc2c(c1)OC1(c3ccccc3)CC1C2=NOCCN(C)C (stereo not shown) [Example 7, 3,4-(3-Methoxybenzo)-5-(2-dimethylaminoethyl)oxyimino-1-phenyl-2-oxabicyclo[4.1.0]heptane]	significantly prolonging the gasping time			minimal effective dose [4]: 20 mg/kg
CN(C)CCON=C1c2ccc(Cl)cc2OC2(c3ccccc3)CC12 (stereo not shown) [Example 8, 3,4-(3-Chlorobenzo)-5-(2-dimethylaminoethyl)oxaimino-1-phenyl-2-oxabicyclo[4.1.0]heptane]	significantly prolonging the gasping time	90.2%		anti-lipidperoxidation effects [2]: strong anti-lipidperoxidation effects
CN(C)CCCON=C1c2ccc(Cl)cc2OC2(c3ccccc3)CC12 (stereo not shown) [Example 9]	significantly prolonging the gasping time	82.7%		anti-lipidperoxidation effects [2]: strong anti-lipidperoxidation effects
CN(C)CCCON=C1c2ccccc2OC2(c3cccs3)CC12 (stereo not shown) [Example 11, 3,4-Benzo-5-(3-dimethylaminopropylo)xyimino-1-thienyl-2-oxabicyclo[4.1.0]heptane]			significantly prolonging the survival time	
CN(C)CCCON=C1c2ccc(Cl)cc2OC2(c3ccc([N+](=O)[O-])cc3)CC12 (stereo not shown) [Example 12, 3,4-(3-Chlorobenzo)-5-(3-dimethylaminopropyl)oxyimino-1-(4-nitrophenyl)-2-oxabicyclo[4.1.0]heptane]		99.0%		anti-lipidperoxidation effects [2]: strong anti-lipidperoxidation effects
CNCCCON=C1c2ccccc2OC2(c3ccccc3)CC12 (stereo not shown) [Example 15, 3,4-Benzo-5-(3-methylaminopropyl)oxyimino-1-phenyl-2-oxabicyclo[4.1.0]heptane]		85.7%	significantly prolonging the survival time	anti-lipidperoxidation effects [2]: strong anti-lipidperoxidation effects
CCN(CC)CCCON=C1c2ccccc2OC2(c3ccccc3)CC12 (stereo not shown) [Example 16]		83.3%		anti-lipidperoxidation effects [2]: strong anti-lipidperoxidation effects
CN(C)CCCCON=C1c2ccccc2OC2(c3ccccc3)CC12 (stereo not shown) [Example 19, 3,4-Benzo-5-(4-dimethylaminobutyl)oxyimino-1-phenyl-2-oxabicyclo[4.1.0]heptane]		52.6%		
CNCCCCON=C1c2ccccc2OC2(c3ccccc3)CC12 (stereo not shown) [Example 20, 3,4-Benzo-5-(4-methylaminobutyl)oxyimino-1-phenyl-2-oxabicyclo[4.1.0]heptan]	significantly prolonging the gasping time			
CN(C)CCCCCON=C1c2ccccc2OC2(c3ccccc3)CC12 (stereo not shown) [Example 21, 3,4-Benzo-5-(5-dimethylaminopentyl)oxyimino-1-phenyl-2-oxabicyclo[4.1.0]heptane]	significantly prolonging the gasping time	62.1%	significantly prolonging the survival time	prolongation of gasping time ([1]; 12.5 mg/kg): significant prolongation of the gasping time; minimal effective dose [4]: 25 mg/kg
CN(C)CCOC1c2ccccc2OC2(c3ccccc3)CC12 (stereo not shown) [Example 23, 3,4-Benzo-5-(2-dimethylaminoethyl)oxy-1-phenyl-2-oxabicyclo[4.1.0]heptane]	significantly prolonging the gasping time			prolongation of gasping time ([1]; 12.5 mg/kg): significant prolongation of the gasping time; minimal effective dose [4]: 50 mg/kg
CN(C)CCCOC1c2ccccc2OC2(c3ccccc3)CC12 (stereo not shown) [Example 24, 3,4-Benzo-5-(3-dimethylaminopropyl)oxy-1-phenyl-2-oxabicyclo[4.1.0]heptane]	significantly prolonging the gasping time			prolongation of gasping time ([1]; 12.5 mg/kg): significant prolongation of the gasping time
CN(C)CCOC1c2ccc(Cl)cc2OC2(c3ccccc3)CC12 (stereo not shown) [Example 26, 3,4-(3-Chlorobenzo)-5-(2-dimethylaminoethyl)oxy-1-phenyl-2-oxabicyclo[4.1.0]heptane]	significantly prolonging the gasping time	79.1%		
CN(C)CCCOC1c2ccc(Cl)cc2OC2(c3ccccc3)CC12 (stereo not shown) [Example 27, 3,4-(3-Chlorobenzo)-5-(3-dimethylaminopropyl)oxy-1-phenyl-2-oxabicyclo[4.1.0]heptane]	significantly prolonging the gasping time	62.0%		prolongation of gasping time ([1]; 12.5 mg/kg): significant prolongation of the gasping time
COc1ccc2c(c1)OC1(c3ccccc3)CC1C2OCCN(C)C (stereo not shown) [Example 28, 3,4-(3-Methoxybenzo)-5-(2-dimethylaminoethyl)oxy-1-phenyl-2-oxabicyclo[4.1.0]heptane]	significantly prolonging the gasping time	77.6%		prolongation of gasping time ([1]; 12.5 mg/kg): significant prolongation of the gasping time; minimal effective dose [4]: 12.5 mg/kg
CN(C)CCCCOC1c2ccccc2OC2(c3ccccc3)CC12 (stereo not shown) [Example 30, 3,4-Benzo-5-(4-dimethylaminobutyl)oxy-1-phenyl-2-oxabicyclo[4.1.0]heptane]	significantly prolonging the gasping time		significantly prolonging the survival time	minimal effective dose [4]: 12.5 mg/kg; prolongation of survival time ([3]; 6.25 mg/kg or smaller): significant prolongation of the survival time
CN(C)CCCCCCOC1c2ccccc2OC2(c3ccccc3)CC12 (stereo not shown) [Example 31]			significantly prolonging the survival time	prolongation of survival time ([3]; 6.25 mg/kg or smaller): significant prolongation of the survival time
CN(C)CCCON=C1c2ccc(O)cc2OC2(c3ccccc3)CC12 (stereo not shown) [Example 34, 3,4-(3-Hydroxybenzo)-5-(3-dimethylaminopropyl)oxyimino-1-phenyl-2-oxabicyclo[4.1.0]heptane]		79.9%		
CN(C)CCCOC1c2ccc(O)cc2OC2(c3ccccc3)CC12 (stereo not shown) [Example 35, 3,4-(3-Hydroxybenzo)-5-(3-dimethylaminopropyl)oxy-1-phenyl-2-oxabicyclo[4.1.0]heptane]		69.0%		
